Tests used:
[1] = Inhibition of human MetAp1a by Morrison method
[2] = Inhibition of Vibrio cholerae MetAp1a by Morrison method
[3] = Inhibition of Vibrio parahaemolyticus MetAp1a by Morrison method
[4] = Inhibition of Vibrio coralliilyticus MetAp1a by Morrison method

| Structure (SMILES) | Ki [1] | Ki [2] | Ki [3] | Ki [4] |
| --- | --- | --- | --- | --- |
| CC(=O)Nc1cc(O)nc(-c2ccccn2)n1 | 1480 nM | 90 nM | 1110 nM | 5120 nM |
| CCOC(=O)c1cnc(-c2ccccn2)nc1O | 510 nM | 110 nM | 1420 nM | 5930 nM |
| FC(F)(F)c1cccc(-c2nc(-c3ccccn3)ncc2-c2nnnn2-c2ccccc2)c1 | 43900 nM | 1130 nM | 2730 nM |  |
| Cc1cc(S)nc(-c2ccccn2)n1 | 150 nM | 120 nM | 200 nM | 16200 nM |
| Cc1nc(-c2ccc(C(F)(F)F)cn2)nc(Sc2ccc(Cl)cc2)c1Cl |  | 6960 nM | 16200 nM |  |
| Oc1cc(C(F)(F)F)nc(-c2ccccn2)n1 | 100 nM | 150 nM | 90 nM | 13100 nM |
| CCCc1nc(-c2ccccn2)nc(OC(=O)N(C)C)c1Cc1c(F)cccc1Cl | 180 nM | 70 nM | 600 nM |  |
| Cc1cc(O)nc(-c2ccccn2)n1 | 620 nM | 300 nM | 210 nM | 6800 nM |
| Cc1nc(-c2ccccn2)nc(NC2CCN(c3ncc(C(F)(F)F)cc3Cl)CC2)c1Cl |  | 4780 nM | 4560 nM |  |
| Cc1nc(-c2ccccn2)nc(N2CCOCC2)c1Cl | 110 nM | 880 nM | 1620 nM |  |
| Cc1nc(-c2ccccn2)nc(N2CCN(CCO)CC2)c1Cl |  | 600 nM | 3710 nM |  |
| CCN(CC)C(=O)Oc1nc(-c2ccccn2)nc(COC)c1CC1CC1 | 450 nM | 2470 nM | 2810 nM |  |
| CSc1nc(-c2ccccn2)nc(N)c1C#N | 210 nM | 680 nM | 130 nM |  |
| CC(C)S(=O)(=O)c1cnc(-c2ccccn2)nc1N | 220 nM | 60 nM | 35000 nM | 49300 nM |
| Cc1cc(Oc2cc(Cl)cc(Cl)c2)nc(-c2ccccn2)n1 | 4210 nM | 50 nM | 280 nM |  |
| Cc1nc(-c2ccccn2)nc(N(C)c2ccccc2)c1Cl | 770 nM | 490 nM | 240 nM |  |
| Cc1cc(Oc2ccc(Cl)cc2)nc(-c2ccccn2)n1 | 230 nM | 730 nM | 350 nM |  |
| Oc1nc(-c2ccccn2)nc2c1CSCC2 | 760 nM | 39000 nM | 24000 nM | 7650 nM |
| CCCCCc1c(C)nc(-c2ccccn2)nc1O | 70 nM | 720 nM | 3310 nM | 11600 nM |

| Structure (SMILES) | Ki [1] | Ki [2] | Ki [3] | Ki [4] |
| --- | --- | --- | --- | --- |
| Cc1nc(-c2ccccn2)nc(SCC(=O)N2CCOCC2)c1Cl | 170 nM | 7960 nM | 12600 nM |  |
| C=CC(C)c1c(O)nc(-c2ccccn2)nc1CCC (centres undefined) | 80 nM | 310 nM | 150 nM | 7240 nM |
| Cc1nc(-c2ccccn2)nc(N2CCN(c3ncnc4scc(-c5ccccc5)c34)CC2)c1Cl |  | 480 nM | 1950 nM |  |
| Cc1nc(-c2ccccn2)nc(NCCNc2cccc(C(F)(F)F)n2)c1Cl |  | 3560 nM | 7910 nM |  |
| FC(F)(F)c1nc(-c2ccccn2)ncc1-c1nnnn1-c1ccc(Cl)cc1 |  |  | 10800 nM |  |
| Cc1nc(-c2ccccn2)nc(N2CCN(C)CC2)c1Cl | 290 nM | 200 nM | 480 nM |  |
| FC(F)(F)c1cc(Nc2cc(Cl)cc(Cl)c2)nc(-c2ccccn2)n1 |  | 60 nM | 140 nM |  |
| Nc1cc(O)nc(-c2ccccn2)n1 | 650 nM | 80 nM | 240 nM | 11900 nM |
| COCc1nc(-c2ccccn2)nc(O)c1CC1CC1 | 290 nM | 160 nM | 250 nM | 27500 nM |
| Cc1nc(-c2ccccn2)nc(SCC(=O)c2ccc(F)cc2)c1Cl | 2350 nM | 1890 nM | 1900 nM |  |
| c1ccc(-c2ccccn2)nc1 | 390 nM | 2840 nM | 2910 nM | 2830 nM |
| Cc1nc(-c2ccccn2)nc(O)c1Cc1c(Cl)cccc1Cl |  | 230 nM | 160 nM | 10200 nM |
| Cc1nc(-c2ccc(C(F)(F)F)cn2)nc(N2CCCCC2)c1Cl | 55800 nM | 4610 nM |  |  |
| Cc1nc(-c2ccccn2)nc(O)c1CC1CC1 | 130 nM | 320 nM | 80 nM | 9290 nM |
| Cc1nc(-c2ccccn2)nc(NCCc2ccccc2)c1Cl |  | 510 nM | 3730 nM |  |
| Cc1nc(-c2ccccn2)nc(N2CCCN(Cc3ccc(Cl)cc3Cl)CC2)c1Cl | 850 nM | 730 nM | 3230 nM |  |
| CCCc1nc(-c2ccccn2)nc(O)c1CC1CC1 | 1380 nM | 70 nM | 1130 nM | 9130 nM |
| COc1ccc(C(=O)CSc2nc(-c3ccccn3)nc(C)c2Cl)cc1 |  | 1430 nM | 5710 nM |  |

Reference: ChEMBL document CHEMBL4706612 (Eur J Med Chem, 2021)
